Our source for the cytotoxicity values is ChEMBL document CHEMBL3507680, “University of Dundee, Gates Library screen for HepG2 cell viability”.

A short description of this data set: Human HepG2 cell viability assay in 384 well format. On the set-up: dose 125 nL, time 70.5 hour; concentration not given beside the values. Particulars: HepG2 cells, read-out: Inhibition. It is filed as toxicity, cell-based.
`CC(C)N(C(=O)CN(C)C1CCc2ccccc21)C(C)C` (stereo not drawn): the cytotoxicity at 70.5 h was -0.805%.

`Cc1cnn(CCNCc2csc(-c3ccsc3)n2)c1`: the cytotoxicity at 70.5 h is -6.72%.

`Cc1cnc(C(=O)NC(CN2CCCC2=O)c2ccccc2)cn1` (stereo not drawn): the cytotoxicity at 70.5 h was -1.21%.

Regarding `CC(C)c1ccc(OCCC(=O)N2CCC(C(N)=O)CC2)cc1`, the cytotoxicity at 70.5 h is -4.09%.

As for `COc1c(CNCc2ccc(N(C)C)nc2)c(C)nn1C`, the cytotoxicity at 70.5 h is 24.3%.

On to `Cc1nc(-c2ccsc2)ccc1C(=O)NCC(C)N1CCOCC1` (stereo not drawn), for which the cytotoxicity at 70.5 h was -4.37%.

As for `O=C(CN1CCC(c2ccccc2)C1)NC(=O)NCC(F)(F)F` (stereo not drawn), the cytotoxicity at 70.5 h is 21.4%.

Take `CC(C)c1ccc(OCCC(=O)N2CCCN(C(N)=O)CC2)cc1`: the cytotoxicity at 70.5 h was -1.87%.

As for `CCNc1cc2c(nn1)CCN(C(=O)c1ccsc1)C2`, the cytotoxicity at 70.5 h is -3.61%.

For the compound `CCc1nnc2n1CCN(CC(=O)Nc1cc(C)nn1C)C2`, the cytotoxicity at 70.5 h was -4.31%.

As to `Cc1nn(C)c(C)c1CC(=O)N1CCCN(c2cccnn2)CC1`, the cytotoxicity at 70.5 h was 5.97%.

Take `Cc1noc(Cl)c1CC(=O)N1CCC(Nc2cccnn2)CC1`: the cytotoxicity at 70.5 h was -1.04%.

Take `CCNc1cc2c(nn1)CCN(C(=O)c1ccc(-n3cnnc3)cc1)C2`: the cytotoxicity at 70.5 h was -0.933%.

Take `O=C(CSc1ccc(F)cc1F)NS(=O)(=O)c1ccc2c(c1)OCCO2`: the cytotoxicity at 70.5 h was -3.46%.

Regarding `CCNc1cc2c(nn1)CCN(C(=O)c1ccnc(C)n1)C2`, the cytotoxicity at 70.5 h was -2.85%.

Turning to `Cc1nc(C)n(CC2CCCN2Cc2cc(-c3cccs3)on2)n1` (stereo not drawn), the cytotoxicity at 70.5 h was -13.7%.

With `Cc1csc(N2CCCN(C(=O)C3(C#N)CCCC3)CC2)n1`, the cytotoxicity at 70.5 h is -8.33%.

With `Cc1cc(C)n(CC2CCCN2C(=O)CCc2ccco2)n1` (stereo not drawn), the cytotoxicity at 70.5 h was -14.5%.

Take `CN(C)c1ccc(C(=O)N2CCCC(n3cccn3)C2)cn1` (stereo not drawn): the cytotoxicity at 70.5 h was 15%.

Consider `Cc1nc(C)n(CC2CCCCN2Cc2nc(-c3ccoc3)no2)n1` (stereo not drawn), for which the cytotoxicity at 70.5 h is -11.8%.

In the case of `Cc1nc(CCNCc2c(C)nn(C)c2N2CCOCC2)cs1`, the cytotoxicity at 70.5 h was -0.903%.

With `Cc1cc(CN2CCN(C(=O)NC(C)c3cccnc3)CC2)no1` (stereo not drawn), the cytotoxicity at 70.5 h was -8.62%.

In the case of `CC(C(=O)NCc1ccnc(N(C)C)c1)n1cccn1` (stereo not drawn), the cytotoxicity at 70.5 h was -3.71%.

On to `CN1CCN(c2cc(CNC(=O)Cn3cccn3)ccn2)CC1`, for which the cytotoxicity at 70.5 h is 13.6%.

On to `O=C(c1ccc(N2CCOCC2)nc1)N1CCCC(n2cccn2)C1` (stereo not drawn), for which the cytotoxicity at 70.5 h was -13.9%.

In the case of `CCOc1ccccc1C(CC(=O)Nc1ccccn1)NC(C)=O` (stereo not drawn), the cytotoxicity at 70.5 h was -5.35%.

On to `COC(=O)c1cc(C(=O)N2CCN(C)CC2)n(-c2ccccc2)n1`, for which the cytotoxicity at 70.5 h was -6.12%.

Turning to `Cc1nc(C)n(CC2CCCN2Cc2nc(-c3ccco3)no2)n1` (stereo not drawn), the cytotoxicity at 70.5 h is -4.04%.

Take `COC(=O)c1cc(C(=O)N2CCOC(C)(C)C2)n(-c2ccccc2)n1`: the cytotoxicity at 70.5 h is -10.1%.

With `Cc1cc(C)n(CC2CCCN2C(=O)CCc2nccs2)n1` (stereo not drawn), the cytotoxicity at 70.5 h is -7.22%.

As to `Cc1cnn(CCNCc2csc(-c3ccc(C)o3)n2)c1`, the cytotoxicity at 70.5 h stood at 19.9%.

For the compound `COCCCN1CCC(C(=O)c2cc(F)ccc2F)CC1`, the cytotoxicity at 70.5 h was -0.37%.

Take `Cc1cnn(CCNCc2nc(-c3ccccn3)no2)c1`: the cytotoxicity at 70.5 h was -6.05%.

Turning to `CC(=O)N1CCCN(C(=O)NCc2cccnc2OC(C)C)CC1`, the cytotoxicity at 70.5 h is -5.61%.

For `COC(=O)CN1CCC(C(=O)c2cc(F)ccc2F)CC1`, the cytotoxicity at 70.5 h is -3.39%.

Take `COCCN1CCC(C(=O)c2cc(F)ccc2F)CC1`: the cytotoxicity at 70.5 h is -2.7%.

On to `CCc1nc(CNCCn2cc(C)cn2)no1`, for which the cytotoxicity at 70.5 h was -5.71%.

Take `CCc1nc(C2CCCN2C(=O)c2cc3c(s2)CCC3)no1` (stereo not drawn): the cytotoxicity at 70.5 h was -2.7%.

Take `NC(=O)C1CCN(C(=O)NCc2cccnc2OC2CCCC2)C1` (stereo not drawn): the cytotoxicity at 70.5 h was -5.81%.

With `CCOc1ccccc1OC1CCN(C(=O)c2c[nH]nn2)CC1`, the cytotoxicity at 70.5 h is -0.281%.

With `CCOc1ccccc1OC1CCN(C(=O)c2cnns2)CC1`, the cytotoxicity at 70.5 h is -3.73%.

Turning to `Cc1ncccc1CNC1CCCN(Cc2noc(C3CC3)n2)C1` (stereo not drawn), the cytotoxicity at 70.5 h worked out at 0.441%.

For `CCc1nc(C2CCCN2CC(=O)N2CCCc3ccccc32)no1` (stereo not drawn), the cytotoxicity at 70.5 h worked out at 22%.

As for `O=C(N1CCCCC1)N1CCN(CC(O)c2ccccc2)CC1` (stereo not drawn), the cytotoxicity at 70.5 h was -3.61%.

For the compound `O=C(Cc1ccc2c(c1)OCCO2)N1CCN(c2cnccn2)CC1`, the cytotoxicity at 70.5 h is -1.49%.

On to `CC(=O)N1CCN(C(=O)NCc2cccnc2OC(C)C)CC1`, for which the cytotoxicity at 70.5 h was 26.4%.

For `CCOc1ccccc1OC1CCN(C(=O)c2csnn2)CC1`, the cytotoxicity at 70.5 h is -5.03%.

Regarding `O=C(Cc1ccc2c(c1)CCO2)N1CCN(c2ccccn2)CC1`, the cytotoxicity at 70.5 h worked out at 2.5%.

Take `O=C(Cc1ccc2c(c1)CCO2)N1CCN(c2ccncc2)CC1`: the cytotoxicity at 70.5 h was determined as 6.77%.

As to `Cc1cc(C)c(CNC(=O)NCc2ccc(F)cc2)c(=O)[nH]1`, the cytotoxicity at 70.5 h was -3.16%.

`O=C(Cc1ccccc1)N1CCN(CC(O)c2ccc(F)cc2)CC1` (stereo not drawn): the cytotoxicity at 70.5 h is -4.03%.

For the compound `O=C(N1CCOCC1)N1CCN(CC(O)c2ccc(F)cc2)CC1` (stereo not drawn), the cytotoxicity at 70.5 h is 3.33%.

With `CCn1ccnc1CN1CCN(CCOc2ccc(C#N)cc2)CC1`, the cytotoxicity at 70.5 h was -4.7%.

For the compound `NC(=O)COc1cccc(CN2CCc3cncnc3C2)c1`, the cytotoxicity at 70.5 h is -0.423%.

For the compound `CC(C)c1ncc2c(n1)CN(Cc1cccc(C(N)=O)c1)CC2`, the cytotoxicity at 70.5 h is -4.48%.

On to `CC(C)Oc1ncccc1CNC(=O)N1CCC(n2cccc2)CC1`, for which the cytotoxicity at 70.5 h is -0.649%.

`Cc1nc(C2CCCN2C(=O)c2cc3c(s2)CCC3)no1` (stereo not drawn): the cytotoxicity at 70.5 h is -6.34%.

For `CCn1c(C(=O)N2CCN(C(=O)NC(C)C)CC2)cc2ccccc21`, the cytotoxicity at 70.5 h is -9.47%.

Turning to `COc1c(C)cnc(CN2CCC(C(=O)N(C)C)CC2)c1C`, the cytotoxicity at 70.5 h was -23.8%.

As for `Fc1ccc(-c2nnc(CN3CCCC3Cn3cncn3)o2)cc1` (stereo not drawn), the cytotoxicity at 70.5 h is -8.54%.

Consider `CCn1c(C(=O)N2CCN(CC(C)O)CC2)cc2ccccc21` (stereo not drawn), for which the cytotoxicity at 70.5 h was determined as 21.6%.

As to `Fc1ccc(-c2nnc(CN3CCOC(Cn4cncn4)C3)o2)cc1` (stereo not drawn), the cytotoxicity at 70.5 h was -28.7%.

Consider `Cc1cc(C(=O)N2CCCCC2c2nc(C)cs2)[nH]n1` (stereo not drawn), for which the cytotoxicity at 70.5 h was -7.87%.

Turning to `COc1ccc(C(=O)N2CCCCC2c2nc(C)cs2)nn1` (stereo not drawn), the cytotoxicity at 70.5 h was found to be 23.8%.

`c1cnnc(NCC2CN(CCN3CCCCC3)CCO2)c1` (stereo not drawn): the cytotoxicity at 70.5 h is -11.2%.

With `O=C(CS(=O)(=O)CC1CCCCC1)NC1CCCCNC1=O` (stereo not drawn), the cytotoxicity at 70.5 h was -14.4%.

`OCCN1CCN(Cc2coc(-c3ccc(Cl)cc3)n2)CC1`: the cytotoxicity at 70.5 h is -11.8%.

Regarding `CC(C(=O)NCCCN1CCCCCC1=O)n1cncn1` (stereo not drawn), the cytotoxicity at 70.5 h is -0.359%.

As to `CC(=O)NCCc1ccc(C(=O)N2CCCC2c2cnn(C)c2)cc1` (stereo not drawn), the cytotoxicity at 70.5 h was 15.1%.

On to `Cn1cnnc1C1CCCN(C(=O)NCc2cc[nH]n2)C1` (stereo not drawn), for which the cytotoxicity at 70.5 h was 18.7%.

For the compound `CN(Cc1cscn1)C1CCCN(Cc2noc(C3CC3)n2)C1` (stereo not drawn), the cytotoxicity at 70.5 h amounted to 22.4%.

Turning to `O=C(NCCn1ccnc1)c1cccc(F)c1`, the cytotoxicity at 70.5 h was -11.3%.

Regarding `CC(C)c1nn(C)c(Cl)c1CNCc1ccc(N(C)C)nc1`, the cytotoxicity at 70.5 h was -2.07%.
